# Values quoted from earlier work in patent publication US20210330900A1, “TARGETED ADMINISTRATION TO THE OROPHARYNX OF VISCOUS OR DRY POWDER FLUTICASONE PROPIONATE AND RELATED CORTICOSTEROIDS FOR THE TREATMENT OF EOSINOPHILIC ESOPHAGITIS (EoE)” (Topical Sinus Therapeutics, Inc., priority 2020, published 2021).
structure (smiles),measurement,setting,value
C[C@@H]1C[C@H]2[C@@H]3C[C@H](F)C4=CC(=O)C=C[C@]4(C)[C@@]3(F)[C@@H](O)C[C@]2(C)[C@@]1(O)C(=O)SCF [Fluticasone],gastrointestinal absorption,compared with other corticosteroids,exceptionally low
same,drug inactivated by 1st pass hepatic metabolism,"into a single inactive metabolite, after gastrointestinal absorption",99%
